Measured values as given in US20090247602A1, “COSMETIC USE OF CONJUGATED COMPOUNDS OF INDOLIC AUXINS” (EXSYMOL S.A.M., priority 2008, published 2009).

Tested on: sensory neurons from explants of rachidian ganglia of rat embryos
Assay: Neurotrophic activity test: neurite outgrowth of dissociated sensory neurons
Assay type: cell-based
Conditions: 72 hours incubation; for % compared to the control: control = case 1
Excerpt: In other respects, and forming the basis of the present invention, it has been discovered for a very small panel of structures limited to the only conjugates of aspartic and glutamic acids, an unexpected property that is a said-neurotrophic activity. This activity is also found in a class of endogenous proteins, the neurotrophins, and in particular in the “NGF” (or “nerve growth factor”), an essential growth and survival factor in the formation and the maintenance of the cutaneous nervous network (M. Bothwell, J. Invest. Dermatol. Symposium Proceedings (1997), vol. 2, pp. 27-30). This remarkable activity, without any connection with antioxidant properties of these compounds, has been evidenced through an in vitro test that consists in measuring the neurites outgrowth kinetics from rat embryos sensory neurons selected for their physiology very similar to the one of human sensory neurons.
Test: Evidence of the Neurotrophic Activity of Aminoacid Conjugates of Indolic Auxins
The experimental study has been achieved on dissociated sensory neurons from explants of rachidian ganglia of rat embryos, and prepared according to the method described by Hall A. K. and al (J. Neurosci. (1997), vol. 17, pp. 2775-2784). After dissection and dissociation, sensory neurons are at once incubated in the following culture media (in hexaplicate), according to three situations: • case 1: culture medium without NGF, and without active ingredient according to the invention (control) • case 2: culture medium without NGF, with an active ingredient according to the invention • case 3: culture medium with NGF (positive reference)
After an incubation time of 72 hours, cells are washed and fixed. They are then labelled by an anti β-tubulin antibody reacting with cellular bodies and outgrowths of neurons. After a disclosure with an Alexa Fluor 488 secondary antibody, colour picture inputs were proceeded (using “In Cell Analyzer 1000™”). These digital data are then used for measuring a relative density of neurite length compared to the non treated control (case 1).
The neurotrophic effect of tested compounds is expressed by an increase (in μm) of this density of neurite outgrowth of neurons, synonymous with a strengthended development kinetic of neuronal network and a better viability (survival) of this latter.

[1] = 0.12 mg/ml, medium without NGF (case 2)
[2] = 5.10^−6 mg/ml, medium with NGF (case 3, positive reference)

| Molecule | Average density of neurite outgrowth of sensory neurons [1] | % compared to the control [1] | Average density of neurite outgrowth of sensory neurons [2] | % compared to the control [2] |
| --- | --- | --- | --- | --- |
| O=C(O)C[C@H](NC(=O)Cc1c[nH]c2ccccc12)C(=O)O [IAA-Asp] | 6820 μm | 108% | – | – |
| O=C(O)CC[C@H](NC(=O)Cc1c[nH]c2ccccc12)C(=O)O [IAA-Glu, indolyl-3-acetylglutamic acid] | 7335 μm | 117% | – | – |
| O=C(O)C[C@H](NC(=O)CCCc1c[nH]c2ccccc12)C(=O)O [IBA-Asp, indolyl-3-butyrylaspartic acid] | 8297 μm | 132% | – | – |
| O=C(O)CC[C@H](NC(=O)CCCc1c[nH]c2ccccc12)C(=O)O [IBA-Glu] | 7195 μm | 114% | – | – |
| O=C(O)C[C@H](NC(=O)CCc1c[nH]c2ccccc12)C(=O)O [IPA-Asp] | 6980 μm | 111% | – | – |
| O=C(O)CC[C@H](NC(=O)CCc1c[nH]c2ccccc12)C(=O)O [IPA-Glu] | 8247 μm | 131% | – | – |
| NGF: nerve growth factor, a neurotrophin; positive reference (case 3) | – | – | 11750 μm | 187% |
